Ends that are not written are not given here.
Experiments:
Assay type in all cases: in vivo
intestines [1] = assay: Incorporation of H^3-thymidine (DNA synthesis) in intestines of treated mice; conditions: for Incorporation H^3-thymidine: 7 hours after treatment of mice, in comparison with control animals not treated with IEGs
Procedure: (§1) Laboratory experiments were carried out to accomplish the third object concerning the effect of preparations on biosynthetic processes which was assessed by the incorporation of H^3 -thymidine (DNA-synthesis) and C^14 -uridine (RNA synthesis) in various regions of the intestines of the mice tested. The preparation's morphogenic effect was assessed by the enterocytic cellularity and DNA concentration in the same regions.
(§2) Each fraction obtained in purifying IEG (see Object 1) was tested on mice. 3 mg of the peptide content of the fraction was administered intraperitoneally simultaneously with the testing reagent (isotope); the animals were then killed and investigated 7 hours afterwards. […] Both IEGs have a suppressive effect on DNA synthesis especially in the lower regions of intestines: IEG1 by 45%, IEG2 --by 48%. […] In this way it switches on the chain of molecular mechanisms by which it acts on the smooth muscle motility.

intestines [2] = assay: Incorporation of C^14-uridine (RNA synthesis) in intestines of treated mice; conditions: 7 hours after treatment of mice, in comparison with control animals not treated with IEGs
Procedure: as §1, §2

intestines [3] = assay: DNA concentration in intestines of treated mice (morphogenic effect); conditions: 7 hours after treatment of mice, in comparison with control animals not treated with IEGs
Procedure: as §1, §2

intestines [4] = assay: Enterocytic cellularity in intestines of treated mice (morphogenic effect); conditions: for Cellularity: 7 hours after treatment of mice, in comparison with control animals not treated with IEGs
Procedure: as §1, §2

[5] = Middle section of the intestines

Substance: Arg-Arg-Asp-Asp-His-Arg-NH2 (RRDDHR-NH2) [IEG2, ID; NO]
- Incorporation H^3-thymidine (intestines [1]; Duodenum): 77%
- Incorporation H^3-thymidine (intestines [1]; Ileum): 55%
- Incorporation H^3-thymidine (intestines [1]; Jejunum): 88%
- Incorporation H^3-thymidine (intestines [1]; [5]): 48%
- suppressive effect on DNA synthesis (intestines [1]; lower regions of intestines, mice, 3 mg intraperitoneally, 7 hours): 48%
- Incorporation C^14-uridine (intestines [2]; Duodenum): 78%
- Incorporation C^14-uridine (intestines [2]; Ileum): 74%
- Incorporation C^14-uridine (intestines [2]; Jejunum): 78%
- Incorporation C^14-uridine (intestines [2]; [5]): 74%
- DNA concentration (intestines [3]; Duodenum): 68%
- DNA concentration (intestines [3]; Ileum): 77%
- DNA concentration (intestines [3]; Jejunum): 97%
- DNA concentration (intestines [3]; [5]): 62%
- Cellularity (intestines [4]; Duodenum): 88%
- Cellularity (intestines [4]; Ileum): 85%
- Cellularity (intestines [4]; Jejunum): 75%
- Cellularity (intestines [4]; [5]): 83%
- Average reduction in enterocyte number (intestines [4]; mice, 3 mg peptide content intraperitoneally, 7 hours): 20%
